Measurements: ChEMBL document CHEMBL3596159, “Beyond substrate analogues: new inhibitor chemotypes for glycosyltransferases” (Medchemcomm, 2014)
Values after ≈ are worked out from the molar mass of the structure shown. Each block holds one molecule with its values, some of them ahead of it.

Tests used:
[1] = test system: Staphylococcus aureus; test: Antimicrobial activity against methicillin-resistant Staphylococcus aureus; type: functional
[2] = Inhibition of methicillin-resistant Staphylococcus aureus MurG
[3] = biological target: CMP-N-acetylneuraminate-beta-1,4-galactoside alpha-2,3-sialyltransferase (Rattus norvegicus, UniProt Q02734); test: Inhibition of rat ST3Gal3
[4] = biological target: T1, Beta-galactoside alpha-2,6-sialyltransferase 1 (Homo sapiens, UniProt P15907); test: Inhibition of human ST6Gal1
T1 sequence (P15907 whole entry): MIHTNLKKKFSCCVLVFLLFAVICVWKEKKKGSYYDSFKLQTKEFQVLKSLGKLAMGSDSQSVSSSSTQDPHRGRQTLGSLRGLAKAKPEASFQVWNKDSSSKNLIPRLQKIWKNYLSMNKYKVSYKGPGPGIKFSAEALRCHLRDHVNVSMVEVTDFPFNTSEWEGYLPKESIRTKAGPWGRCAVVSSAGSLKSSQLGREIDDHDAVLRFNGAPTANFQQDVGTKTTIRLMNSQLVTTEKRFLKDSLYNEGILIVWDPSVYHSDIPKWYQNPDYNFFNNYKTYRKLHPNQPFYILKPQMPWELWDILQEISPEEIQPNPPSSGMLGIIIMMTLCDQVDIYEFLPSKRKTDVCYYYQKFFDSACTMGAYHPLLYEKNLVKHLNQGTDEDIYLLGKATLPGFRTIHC

[5] = biological target: Beta-galactoside alpha-2,6-sialyltransferase 1 (Rattus norvegicus, UniProt P13721); test: Inhibition of rat ST6Gal1
[6] = biological target: T1, Beta-galactoside alpha-2,6-sialyltransferase 1; test: Inhibition of ST6Gal 1 (unknown origin)
[7] = biological target: T2, CMP-N-acetylneuraminate-beta-galactosamide-alpha-2,3-sialyltransferase 1 (Homo sapiens, UniProt Q11201); test: Inhibition of ST3Gal 1 (unknown origin)
T2 sequence (Q11201 whole entry): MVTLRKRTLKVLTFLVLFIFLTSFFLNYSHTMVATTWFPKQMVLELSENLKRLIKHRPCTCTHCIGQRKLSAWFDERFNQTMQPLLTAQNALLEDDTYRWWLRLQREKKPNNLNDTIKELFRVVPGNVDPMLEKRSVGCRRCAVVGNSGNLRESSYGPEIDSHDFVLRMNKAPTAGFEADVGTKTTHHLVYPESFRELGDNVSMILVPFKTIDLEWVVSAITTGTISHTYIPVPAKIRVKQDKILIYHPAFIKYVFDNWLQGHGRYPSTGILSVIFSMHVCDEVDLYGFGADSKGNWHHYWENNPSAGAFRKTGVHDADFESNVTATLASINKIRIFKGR

[8] = biological target: T3, 4-galactosyl-N-acetylglucosaminide 3-alpha-L-fucosyltransferase FUT5 (Homo sapiens, UniProt Q11128); test: Inhibition of FucT-5 (unknown origin)
T3 sequence (Q11128 whole entry): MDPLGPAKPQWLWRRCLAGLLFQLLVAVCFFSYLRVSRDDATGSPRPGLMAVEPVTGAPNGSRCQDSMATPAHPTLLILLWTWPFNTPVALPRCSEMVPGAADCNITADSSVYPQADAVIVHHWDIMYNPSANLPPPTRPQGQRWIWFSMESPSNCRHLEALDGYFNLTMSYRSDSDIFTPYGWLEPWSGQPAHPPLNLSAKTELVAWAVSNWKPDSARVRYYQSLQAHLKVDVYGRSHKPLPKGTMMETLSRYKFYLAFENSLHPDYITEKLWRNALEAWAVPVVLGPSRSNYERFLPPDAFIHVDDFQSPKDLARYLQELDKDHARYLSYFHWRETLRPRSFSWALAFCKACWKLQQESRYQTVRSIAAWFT

[9] = biological target: T3, 4-galactosyl-N-acetylglucosaminide 3-alpha-L-fucosyltransferase FUT5; test: Non-competitive inhibition of FucT-5 (unknown origin) using LacNAc as acceptor substrate
[10] = biological target: T4, CMP-N-acetylneuraminate-beta-1,4-galactoside alpha-2,3-sialyltransferase (Homo sapiens, UniProt Q11203); test: Inhibition of ST3N (unknown origin)
T4 sequence (Q11203 whole entry): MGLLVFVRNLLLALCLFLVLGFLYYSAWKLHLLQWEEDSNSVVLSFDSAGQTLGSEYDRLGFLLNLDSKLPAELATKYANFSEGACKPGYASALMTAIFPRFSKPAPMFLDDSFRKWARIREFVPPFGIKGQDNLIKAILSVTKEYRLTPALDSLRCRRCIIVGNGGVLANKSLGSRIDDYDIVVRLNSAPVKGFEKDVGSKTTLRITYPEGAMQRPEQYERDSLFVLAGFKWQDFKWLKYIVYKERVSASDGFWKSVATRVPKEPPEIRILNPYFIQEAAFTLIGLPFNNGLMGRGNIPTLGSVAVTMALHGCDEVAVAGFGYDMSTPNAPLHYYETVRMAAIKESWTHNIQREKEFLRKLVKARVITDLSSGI

[11] = biological target: T5, 4-galactosyl-N-acetylglucosaminide 3-alpha-L-fucosyltransferase FUT6 (Homo sapiens, UniProt P51993); test: Inhibition of FucT-6 (unknown origin)
T5 sequence (P51993 whole entry): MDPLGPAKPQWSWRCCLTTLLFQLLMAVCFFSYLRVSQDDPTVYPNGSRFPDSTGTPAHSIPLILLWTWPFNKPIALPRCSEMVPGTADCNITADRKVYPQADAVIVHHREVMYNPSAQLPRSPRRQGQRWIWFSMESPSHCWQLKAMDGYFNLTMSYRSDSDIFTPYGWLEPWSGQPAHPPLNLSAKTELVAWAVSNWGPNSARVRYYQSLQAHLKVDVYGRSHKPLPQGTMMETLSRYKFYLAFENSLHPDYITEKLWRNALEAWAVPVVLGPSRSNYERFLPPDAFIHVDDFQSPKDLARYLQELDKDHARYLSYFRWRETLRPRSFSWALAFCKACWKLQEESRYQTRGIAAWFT

[12] = biological target: T3, 4-galactosyl-N-acetylglucosaminide 3-alpha-L-fucosyltransferase FUT5; test: Uncompetitive inhibition of FucT-5 (unknown origin) using GDP-fucose as donor substrate
[13] = biological target: T1, Beta-galactoside alpha-2,6-sialyltransferase 1; test: Inhibition of ST6N (unknown origin)
[14] = Inhibition of Candida albicans chitin synthase
[15] = Inhibition of GTA (unknown origin); parameters: species or system Homo sapiens
[16] = Inhibition of AAGlyB (unknown origin); parameters: species or system Homo sapiens
[17] = Inhibition of alpha-(1,3)-GalT (unknown origin); parameters: species or system Homo sapiens
[18] = biological target: Histo-blood group ABO system transferase (Homo sapiens, UniProt P16442); test: Inhibition of GTB (unknown origin)
[19] = Inhibition of sialyltransferase (unknown origin); parameters: species or system Homo sapiens
[20] = biological target: Alpha-(1,3)-fucosyltransferase 4 (Homo sapiens, UniProt P22083); test: Inhibition of FucT-4 (unknown origin)
Chain of Alpha-(1,3)-fucosyltransferase 4 (P22083 whole entry): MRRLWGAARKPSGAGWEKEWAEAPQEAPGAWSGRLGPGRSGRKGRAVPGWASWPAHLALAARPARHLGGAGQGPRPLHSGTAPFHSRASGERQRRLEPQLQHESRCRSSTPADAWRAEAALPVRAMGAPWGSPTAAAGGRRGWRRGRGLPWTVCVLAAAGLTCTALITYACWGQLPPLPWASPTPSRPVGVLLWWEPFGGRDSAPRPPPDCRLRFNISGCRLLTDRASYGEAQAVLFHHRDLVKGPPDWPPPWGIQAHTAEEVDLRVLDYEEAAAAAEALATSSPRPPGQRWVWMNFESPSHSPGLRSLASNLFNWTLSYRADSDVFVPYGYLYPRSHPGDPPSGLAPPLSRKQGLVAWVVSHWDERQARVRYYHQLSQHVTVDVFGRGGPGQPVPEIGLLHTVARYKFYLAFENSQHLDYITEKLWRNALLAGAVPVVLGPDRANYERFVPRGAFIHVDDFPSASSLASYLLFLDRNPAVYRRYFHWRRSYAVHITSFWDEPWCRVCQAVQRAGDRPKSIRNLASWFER

Chain of Beta-galactoside alpha-2,6-sialyltransferase 1 (Rattus norvegicus, UniProt P13721) (P13721 whole entry): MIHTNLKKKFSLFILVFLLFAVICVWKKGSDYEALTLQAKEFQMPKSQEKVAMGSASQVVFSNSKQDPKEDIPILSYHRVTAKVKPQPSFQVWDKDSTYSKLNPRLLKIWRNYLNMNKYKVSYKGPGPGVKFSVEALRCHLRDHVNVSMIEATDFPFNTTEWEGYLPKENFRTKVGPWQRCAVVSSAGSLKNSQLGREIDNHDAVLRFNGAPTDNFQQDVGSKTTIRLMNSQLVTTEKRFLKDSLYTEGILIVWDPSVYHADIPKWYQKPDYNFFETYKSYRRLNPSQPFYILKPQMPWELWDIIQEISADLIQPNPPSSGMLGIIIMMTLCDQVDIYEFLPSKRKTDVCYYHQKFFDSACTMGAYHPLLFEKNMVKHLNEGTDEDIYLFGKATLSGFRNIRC
Chain of Histo-blood group ABO system transferase (P16442 whole entry): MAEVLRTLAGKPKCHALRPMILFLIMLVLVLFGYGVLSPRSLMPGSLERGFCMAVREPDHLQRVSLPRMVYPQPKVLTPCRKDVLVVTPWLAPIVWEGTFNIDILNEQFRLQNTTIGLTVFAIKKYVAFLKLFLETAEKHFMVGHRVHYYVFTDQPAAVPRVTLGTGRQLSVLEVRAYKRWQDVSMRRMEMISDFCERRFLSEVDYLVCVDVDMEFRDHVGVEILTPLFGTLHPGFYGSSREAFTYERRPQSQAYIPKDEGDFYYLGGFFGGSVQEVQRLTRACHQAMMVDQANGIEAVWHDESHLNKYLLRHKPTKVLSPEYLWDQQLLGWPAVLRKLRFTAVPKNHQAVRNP
Chain of CMP-N-acetylneuraminate-beta-1,4-galactoside alpha-2,3-sialyltransferase (Rattus norvegicus, UniProt Q02734) (Q02734 whole entry): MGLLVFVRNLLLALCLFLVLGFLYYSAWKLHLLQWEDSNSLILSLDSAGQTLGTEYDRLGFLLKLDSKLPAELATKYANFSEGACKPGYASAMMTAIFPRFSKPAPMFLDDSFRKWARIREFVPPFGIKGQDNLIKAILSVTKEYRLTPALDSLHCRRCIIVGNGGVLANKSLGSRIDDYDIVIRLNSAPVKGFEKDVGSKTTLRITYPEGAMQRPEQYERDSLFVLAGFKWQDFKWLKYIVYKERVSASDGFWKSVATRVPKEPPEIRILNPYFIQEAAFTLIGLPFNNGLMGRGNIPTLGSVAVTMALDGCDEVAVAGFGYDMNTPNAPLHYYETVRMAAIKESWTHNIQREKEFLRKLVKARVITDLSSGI

SMILES: C[C@]12Cc3cnn(-c4ccncc4)c3C=C1CC[C@@H]1[C@@H]2CC[C@@]2(C)[C@H]1CC[C@]2(O)C(=O)CO
MIC [1]: 2 µg/mL (≈ 4.47 µM)
IC50 [2]: 115 µg/mL (≈ 257 µM)

SMILES: C[C@@H]([C@H](N)C(=O)N[C@H](C(=O)O)[C@H]1O[C@@H](n2ccc(=O)[nH]c2=O)[C@H](O)[C@@H]1O)[C@H](O)c1ccc(O)cn1 [NIKKOMYCIN]
Ki [14]: 0.16 µM

SMILES: O=C(O)c1cc(O)c(O)c(O)c1 [GALLIC ACID]
IC50 [19]: 19 µM
IC50 [20]: 14 µM

Second part, the molecule after the results:

IC50 [3]: 1.4 µM
IC50 [4]: 7.1 µM
IC50 [5]: 5.1 µM
SMILES: O=c1cc(-c2ccc(O)c(O)c2)oc2ccccc12

IC50 [6]: 1.5 µM
IC50 [7]: 0.88 µM
SMILES: C[C@H](CCC(=O)O)[C@H]1CC[C@H]2[C@@H]3CC[C@@H]4C[C@H](OC(=O)[C@H](CCC(=O)O)Nc5ccc([N+](=O)[O-])c6nonc56)CC[C@]4(C)[C@H]3CC[C@]12C

IC50 [8]: 11.3 µM
IC50 [7]: 6.7 µM
Ki [9]: 9.7 µM
IC50 [10]: 10 µM
IC50 [11]: 20.9 µM
Ki [12]: 10.7 µM
IC50 [13]: 0.61 µM
SMILES: C[C@@H]1CC[C@H]2C(C)(C)[C@H](O)CC[C@]2(C)[C@@]12Cc1c(O)cc(C=O)c(C=O)c1O2

Ki [15]: 5100 µM
Ki [16]: > 15000 µM
Ki [17]: 6300 µM
Ki [18]: 800 µM
SMILES: c1ccc(-c2nsc(N3CCNCC3)n2)cc1
